Here are results for 4 substances from US9850287B2, “Means and methods for breaking noncovalent binding interactions between molecules” (Het Nederlands Kanker Instituut, priority 2005, dated 2017).

Experiment [1] has as its system CD8+ lymphocytes in peripheral blood mononuclear cells of a CMV-positive donor. The experiment is classed as cell-based.
The target in another experiment is T1, HLA-A2.1 (Homo sapiens, UniProt P04439, D140Y/D185E/D98H/E176V/E277Q/G131W/G231S/I119V/I121R/I166T/I218V/N151K/N90K/P208A/P217A/Q86G/Q94H/R138H/R169H).
T1 construct: made in house
Format: binding.

On to MART I 26-35 (A2L mutant), for which, in experiment [1], the “staining of CD8+ T-cells by exchange-generated MHC tetramers” value was “do not show measurable binding”.
“GP100 (614-622): HLA-A3-binding peptide, control not expected to interact with HLA-A2.1 (LIYRRRLMK)”: the “recovery of UV-sensitive MHC multimer upon addition of peptide” value with HLA-A2.1 was “does not lead to a substantial increase in the recovery”.
“CMV pp65 495-503: CMV pp65 495-503 epitope peptide (NLVPMVATV; UniProt P06725 495-503, looked up, fragment)”: the “staining of CD8+ T-cells by exchange-generated MHC tetramers” value in experiment [1] is “detect CMV-specific T-cells at an equal frequency and with similar intensity as conventional CMV pp65 495-503-specific MHC tetramers”.
Regarding “HY 311-319: HLA-A2.1-binding peptide (FIDSYICQV)”, the “staining of CD8+ T-cells by exchange-generated MHC tetramers” value in experiment [1] was “do not show measurable binding”. For the same substance, the “recovery of UV-sensitive MHC multimer upon addition of peptide” value in the experiment with HLA-A2.1 was “highly increased recovery”.
